Experimental data: patent US20250049800A1, “VCP/p97 INHIBITOR FOR THE TREATMENT OF CANCER” (CASI Pharmaceuticals, Inc., priority 2021, published 2025)
Read-outs that look alike come from different tables or passages of the source.

What was measured:
HCC1806 (Breast) = assay: Cell Titer-Glo viability: single agent IC50 and Compound 1 + PARP inhibitor matrix (Bliss); assay type: cell-based; conditions: Homo sapiens, 72 h, single agent, read-out: Absolute IC50
Experimental: (§1) The PARP inhibitors used for the study were talazoparib, olaparib and niraparib. […] was used as a reference control. […] For each drug agent on its own, IC50 values in each cell line were determined. Interactions of the combinations of Compound 1 and each PARP inhibitor was assessed as follows: […] Cisplatin and culture media were used as positive and negative control, respectively. The combination activities were assessed using CrownSyn software to determine synergy scores by Bliss Independence and Loewe additivity methods. […] Synergy scores calculated by both Bliss independence model and Loewe additivity model (see Greco, […]., Poch, G., Suhnel, J., Kundi, M., & Bodeker, W. (1992). Consensus on concepts and terminology for combined-action assessment: the […] agreement. […] Without being bound by theory, the Bliss independence model is often applied to asses synergy for non-interacting drugs that elicit their responses independently, e.g., by targeting separate pathways, whereas the Loewe additivity model may be more compatible where both drugs have similar modes of action on the same targets or pathways.

IGR-OV1 (Ovary) = assay: as above; assay type: cell-based; conditions: Homo sapiens, IGROV-1, 72 h, single agent, read-out: Absolute IC50
Experimental: as §1

MX-1 (Breast) = assay: as above; assay type: cell-based; conditions: single agent, read-out: Absolute IC50
Experimental: as §1

[1] = tested on: DoTc2 4510 (Uterus/Cervix); assay: as above; assay type: cell-based; conditions: Homo sapiens, single agent, read-out: Absolute IC50
Experimental: as §1

SK-OV-3 (Ovary) = assay: as above; assay type: cell-based; conditions: Homo sapiens, single agent, read-out: Absolute IC50
Experimental: as §1

HCC1937 (Breast) = assay: as above; assay type: cell-based; conditions: Homo sapiens, single agent, read-out: Absolute IC50
Experimental: as §1

DU4475 (Breast) = assay: as above; assay type: cell-based; conditions: Homo sapiens, DU-4475, 72 h, single agent, read-out: Absolute IC50
Experimental: as §1

OVCAR-8 (Ovary) = assay: as above; assay type: cell-based; conditions: Homo sapiens, 72 h, single agent, read-out: Absolute IC50
Experimental: as §1

HCC1395 (Breast) = assay: as above; assay type: cell-based; conditions: Homo sapiens, 72 h, single agent, read-out: Absolute IC50
Experimental: as §1

Capan-1 (Pancreas) = assay: as above; assay type: cell-based; conditions: Homo sapiens, 72 h, single agent, read-out: Absolute IC50
Experimental: as §1

MOML-13 cell line = assay: Cell Titer-Glo viability, fixed agent + dose response agent combinations; assay type: cell-based, human; conditions: MOML-13; for IC50: Homo sapiens, read-out: IC50
Experimental: (§2) The additional therapeutic agents for this example were azacitidine (Cayman Chemical Cat No. 11164), decitabine (Sigma Cat No. A3656) and venetoclax (InvivoChem Cat. No. V0001).
(§3) Cell Culture: Three human acute myeloid leukemia tumor cell lines were used in this study: HL60, MV4;11 and MOLM-13. HL60 and MV4;11 were grown in IMDM base media with 20% and 10% FBS, respectively. MOLM-13 was grown in RPMI 1640 base media with 20% FBS. All culture media contained 2 mM glutamine, 100 units/mL sodium penicillin G, […] gentamicin, and 100 µg/mL streptomycin sulfate. The tumor cells were cultured in tissue culture flasks in a humidified incubator at 37° C., in an atmosphere of 5% CO2 and 95% air. Assay: Tumor cells were seeded in duplicate in a volume of 100 µL/well of media into 96-well micro-culture plates at initial densities low enough to allow for several population doublings (typically three to five) during the indicated incubation period. After a 24 hour incubation, test agents were added to each well. After 72 hours of culture with test articles, cell viability was determined using the Cell Titer-Glo® (Promega G7571) assay. Briefly, Cell Titer-Glo® (Promega G7571) reagents were equilibrated at room temperature for 30 minutes; 100 μL per well was added at endpoint (72 hours). Plates were gently shaken for two minutes and then incubated at room temperature for ten minutes prior to reading luminescence on the BMG Clariostar Plus microplate reader.
(§4) An IC50 ratio for each combination was calculated from the ratio of the combination IC50 as compared to the applicable no fixed agent (vehicle) control.

HL-60 cell line = assay: as above; assay type: cell-based, human; conditions: for Combination:Monotherapy IC50 Ratio: HL-60; for IC50: Homo sapiens, HL-60, HL-60, read-out: IC50
Experimental: as §2, §3, §4

MV4; 11 cell line = assay: as above; assay type: cell-based, human; conditions: 11; for IC50: Homo sapiens, MV4-11, MV4, read-out: IC50; for Combination:Monotherapy IC50 Ratio: MV4
Experimental: as §2, §3, §4

[2] = fixed agent Azacitidine - 105 nM
[3] = fixed agent Azacitidine - 850 nM
[4] = fixed agent Decitabine - 2.5 nM
[5] = fixed agent Decitabine - 8.5 nM
[6] = fixed agent Venetoclax + Azacitidine - 6.5 nM
[7] = fixed agent Venetoclax + Azacitidine - 20 nM
[8] = fixed agent Azacitidine - 5750 nM
[9] = fixed agent Azacitidine - 9800 nM
[10] = fixed agent Decitabine - 175 nM
[11] = fixed agent Decitabine - 1700 nM
[12] = fixed agent Venetoclax + Azacitidine - 85 nM
[13] = fixed agent Venetoclax + Azacitidine - 475 nM
[14] = fixed agent Azacitidine - 500 nM
[15] = fixed agent Azacitidine - 3150 nM
[16] = fixed agent Decitabine - 215 nM
[17] = fixed agent Venetoclax + Azacitidine - 50 nM

`Cc1cc2c(C(N)=O)cccc2n1-c1nc2c(c(NCc3ccccc3)n1)CCCN2` [Compound 1, 1-(4-(benzylamino)-5,6,7,8-tetrahydropyrido[2,3-d]pyrimidin-2-yl)-2-methyl-1H-indole-4-carboxamide] gave an IC50 (HCC1806 (Breast)) of 437 nM, an IC50 (IGR-OV1 (Ovary)) of 279 nM and an IC50 (MX-1 (Breast)) of 409 nM. The IC50 [1] was 513 nM, the IC50 (SK-OV-3 (Ovary)) was 1790 nM and the IC50 (HCC1937 (Breast)) was 559 nM. For the same compound, the IC50 (DU4475 (Breast)) was 343 nM, the IC50 (OVCAR-8 (Ovary)) was 200 nM and the IC50 (HCC1395 (Breast)) was 201 nM. It also gave an IC50 (Capan-1 (Pancreas)) of 405 nM, an IC50 (MOML-13 cell line; [2]) of 84.6 nM and an IC50 (MOML-13 cell line; [3]) of 84.9 nM. The IC50 (MOML-13 cell line; [4]) was 121 nM, the IC50 (MOML-13 cell line; [5]) was 65 nM and the IC50 (MOML-13 cell line; [6]) was 154 nM. For the same compound, the IC50 (MOML-13 cell line; [7]) was 113 nM, the “Combination:Monotherapy IC50 Ratio” value (MOML-13 cell line; [2]) was 0.39 and the “Combination:Monotherapy IC50 Ratio” value (MOML-13 cell line; [3]) was 0.39. For the same compound, the “Combination:Monotherapy IC50 Ratio” value (MOML-13 cell line; [4]) was 0.56, the “Combination:Monotherapy IC50 Ratio” value (MOML-13 cell line; [5]) was 0.30 and the “Combination:Monotherapy IC50 Ratio” value (MOML-13 cell line; [6]) was 0.71. The “Combination:Monotherapy IC50 Ratio” value (MOML-13 cell line; [7]) was 0.52, the “Combination:Monotherapy IC50 Ratio” value (HL-60 cell line; [8]) was 1.02 and the “Combination:Monotherapy IC50 Ratio” value (HL-60 cell line; [9]) was 0.85. For the same compound, the “Combination:Monotherapy IC50 Ratio” value (HL-60 cell line; [10]) was 0.96, the “Combination:Monotherapy IC50 Ratio” value (HL-60 cell line; [11]) was 1.06 and the “Combination:Monotherapy IC50 Ratio” value (HL-60 cell line; [12]) was 0.84. The “Combination:Monotherapy IC50 Ratio” value (HL-60 cell line; [13]) was 0.84, the IC50 (HL-60 cell line; [8]) was 311 nM and the IC50 (HL-60 cell line; [9]) was 258 nM. The IC50 (HL-60 cell line; [10]) was 294 nM, the IC50 (HL-60 cell line; [11]) was 322 nM and the IC50 (HL-60 cell line; [12]) was 256 nM. For the same compound, the IC50 (HL-60 cell line; [13]) was 256 nM, the IC50 (MV4; 11 cell line; [14]) was 114 nM and the IC50 (MV4; 11 cell line; [15]) was 118 nM. It also gave an IC50 (MV4; 11 cell line; fixed agent Decitabine - 30 nM) of 117 nM, an IC50 (MV4; 11 cell line; [16]) of 91.5 nM and an IC50 (MV4; 11 cell line; [7]) of 163 nM. For the same compound, the IC50 (MV4; 11 cell line; [17]) was 118 nM, the “Combination:Monotherapy IC50 Ratio” value (MV4; 11 cell line; [14]) was 0.46 and the “Combination:Monotherapy IC50 Ratio” value (MV4; 11 cell line; [15]) was 0.47. For the same compound, the “Combination:Monotherapy IC50 Ratio” value (MV4; 11 cell line; fixed agent Decitabine - 30 nM) was 0.47, the “Combination:Monotherapy IC50 Ratio” value (MV4; 11 cell line; [16]) was 0.36 and the “Combination:Monotherapy IC50 Ratio” value (MV4; 11 cell line; [7]) was 0.65. For the same compound, the “Combination:Monotherapy IC50 Ratio” value (MV4; 11 cell line; [17]) was 0.47.
